The source of these data is ChEMBL document CHEMBL6074627 (RSC Med Chem, 2024).

Activity calls are given as the source filed them. The rule behind the calls is not given here.

Experiment [1] deals with mRNA cap guanine-N(7) methyltransferase (Homo sapiens) (UniProt O43148). Kind of experiment: Inhibition of human RNMT at 25 uM.
In the next experiment the test system is SARS-CoV-2. Kind of experiment: Antiviral activity against SARS-CoV-2 hCoV-19/Czech Republic/NRL_6632_2/2020 infected in African green monkey Vero E6 cells assessed as reduction in viral growth […] by two-fold serial dilution assay. Type of experiment: functional, organism-based. To be noted: Severe acute respiratory syndrome coronavirus 2.

Experiment [2] concerns the target Replicase polyprotein 1ab (Severe acute respiratory syndrome coronavirus 2, UniProt P0DTD1). The experiment can be described thus: Inhibition of N-terminal 8His and SUMO tagged SARS-CoV-2 nsp14 N7-methyltransferase activity extracted from Escherichia coli using S-Adenosyl-L-methionine as substrate incubated for 30 mins by mass spectrometry.

Chain of mRNA cap guanine-N(7) methyltransferase (Homo sapiens) (O43148 whole entry): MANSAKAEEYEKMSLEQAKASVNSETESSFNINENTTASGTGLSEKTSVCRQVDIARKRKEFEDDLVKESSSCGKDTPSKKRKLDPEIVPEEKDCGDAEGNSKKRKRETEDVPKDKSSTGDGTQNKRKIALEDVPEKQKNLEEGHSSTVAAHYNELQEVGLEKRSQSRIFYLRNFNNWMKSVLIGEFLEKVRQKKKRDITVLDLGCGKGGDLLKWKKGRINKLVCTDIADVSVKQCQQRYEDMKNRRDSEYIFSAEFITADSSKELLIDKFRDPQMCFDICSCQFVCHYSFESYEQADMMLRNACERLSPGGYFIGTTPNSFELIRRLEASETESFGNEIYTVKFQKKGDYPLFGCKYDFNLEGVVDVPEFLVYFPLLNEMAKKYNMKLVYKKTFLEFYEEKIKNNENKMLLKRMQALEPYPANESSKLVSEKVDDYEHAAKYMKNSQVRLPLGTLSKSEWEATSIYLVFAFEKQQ

For the compound `Cc1cc(=O)[nH]c2cc(N(C)C(=O)[C@H]3O[C@@H](n4cc(C#Cc5cncnc5)c5c(N)ncnc54)[C@H](O)[C@@H]3O)ccc12`, the inhibition result in experiment [1] was “inactive”. The result in the experiment on SARS-CoV-2 was inactive. With `Nc1ncnc2c1ncn2[C@@H]1O[C@H](C(=O)Nc2ccc(-c3ccsc3)cc2)[C@@H](O)[C@H]1O`, the IC50 entry in experiment [2] is “Not_active”. On to `Nc1ncnc2c1ncn2[C@@H]1O[C@H](C(=O)Nc2ccc(-c3ccoc3)cc2)[C@@H](O)[C@H]1O`, for which, in experiment [2], the IC50 result is recorded as “Not_active”. With `Cc1cc(=O)[nH]c2cc(NC(=O)[C@H]3O[C@@H](n4cc(C#Cc5cncnc5)c5c(N)ncnc54)[C@H](O)[C@@H]3O)ccc12`, the inhibition result in experiment [1] is “inactive”. Besides, in the experiment on SARS-CoV-2, the result was inactive. On to `Cc1cc(=O)[nH]c2cc(NC(=O)[C@H]3O[C@@H](n4cnc5c(N)ncnc54)[C@H](O)[C@@H]3O)ccc12`, for which the inhibition entry in experiment [1] is “inactive”. For the same compound, in the experiment with SARS-CoV-2, the outcome was inactive.

For the compound `Cc1ccc(NC(=O)[C@H]2O[C@@H](n3cnc4c(N)ncnc43)[C@H](O)[C@@H]2O)cc1O`, in experiment [2], the IC50 result is reported as “Not_active”. For `COc1cccc(NC(=O)[C@H]2O[C@@H](n3cnc4c(N)ncnc43)[C@H](O)[C@@H]2O)c1`, the IC50 result in experiment [2] was “Not_active”.

As to `Nc1ncnc2c1ncn2[C@@H]1O[C@H](C(=O)Nc2ccc(-c3cn[nH]c3)cc2)[C@@H](O)[C@H]1O`, the IC50 entry in experiment [2] is reported as “Not_active”.

In the case of `NC(=O)c1ccc(NC(=O)[C@H]2O[C@@H](n3cnc4c(N)ncnc43)[C@H](O)[C@@H]2O)cc1`, the IC50 entry in experiment [2] is given as “Not_active”. On to `Cc1cc(=O)oc2cc(NC(=O)[C@H]3O[C@@H](n4cnc5c(N)ncnc54)[C@H](O)[C@@H]3O)ccc12`, for which, in experiment [1], the inhibition entry was “inactive”. Moreover, the result in the experiment on SARS-CoV-2 was inactive. In the case of `COC(=O)c1cc(NC(=O)[C@H]2O[C@@H](n3cnc4c(N)ncnc43)[C@H](O)[C@@H]2O)ccc1F`, in experiment [2], the IC50 entry was “Not_active”. On the same count and under the same terms, with `Nc1ncnc2c1ncn2[C@@H]1O[C@H](CNC(=O)c2ccc3c(c2)OCCO3)[C@@H](O)[C@H]1O` the entry was “Not_active”; with `Cc1noc(C)c1-c1ccc(NC(=O)[C@H]2O[C@@H](n3cnc4c(N)ncnc43)[C@H](O)[C@@H]2O)cc1`, “Not_active”. Same read-out and setting: with `COC(=O)c1ccc(C(=O)NC[C@H]2O[C@@H](n3cnc4c(N)ncnc43)[C@H](O)[C@@H]2O)cc1` the entry was “Not_active”. Regarding `Cc1cc(=O)oc2cc(NC(=O)[C@H]3O[C@@H](n4cc(C#Cc5cncnc5)c5c(N)ncnc54)[C@H](O)[C@@H]3O)ccc12`, in experiment [1], the inhibition entry was “inactive”. Besides, the result in the experiment on SARS-CoV-2 was inactive.
